Like-named read-outs stand apart in the source and are kept apart here.
Experiments:
MDA-MB-231 = experiment: Cell cycle analysis by propidium iodide staining, MDA-MB-231; type: cell-based, human; settings: for cell cycle arrest phase, MDA-MB-231: ER negative cell line; for change of %G1 vs control, MDA-MB-231 / change of %G2 vs control, MDA-MB-231 / change of %S vs control, MDA-MB-231: control = 100%, 24 h; for %G1, MDA-MB-231 / %G2, MDA-MB-231 / %S, MDA-MB-231: treated at IC50, 24 h
Experimental: Our study continued with the examination of the effect of the newly synthesized compounds’ IC50 values on cell cycle progression. The cell aliquots were collected, and FACS analyses were used to detect the effects of cell treatments with the selected compounds (2, 4, and 5). A propidium iodide staining assay was performed.
The changes in the cell cycle distribution in % (G1, S, and G2 phases), based on the graphical figures A–C, were calculated and are given in Table 4.
The cells were trypsinized, suspended in medium + 10% FCS, and centrifuged (1000 rpm, 5 min); then, the pellet was suspended in PBS (1 mL) and fixed with EtOH. The cells were suspended in 2.5 mL pre-cold 70% EtOH and incubated on ice for 15 min. The staining procedure was as follows: the pellet was suspended in a 500 μL PI-solution in PBS and 0.1 mg/mL RNase A, and 0.05% Triton X-100 was added. After incubation for 10 min at 37 °C, the cells were transferred to the flow cytometer and cell fluorescence was measured. The samples were measured by flow cytometry (LSR II, BD Biosciences, Franklin Lakes, NJ, USA) and analyzed using BD FACS DIVA software v. 6.1.3 (BD Biosciences).

MCF-7 = experiment: MTT anti-proliferative test, MCF-7; type: cell-based, human; settings: for SI (selective index) MCF-7: IC50 MCF-10A/IC50 MCF-7
Excerpt: The MCF-10A cell line (normal human mammary epithelial cells) served as a reference control.
All breast cell lines (MCF-10A, MCF-7, and MDA-MB-231) were purchased from the American Type Culture Collection—ATCC (Manassas, VA, USA). The MCF-7 and MDA-MB-231 were cultivated in Dulbecco’s modified Eagle’s medium (DMEM) and supplemented with 10% fetal bovine serum (FBS), 1% sodium pyruvate, and 1% MEM non-essential amino acids (NEAA) without antibiotics. The non-tumorigenic breast cell line (MCF-10A) was cultivated in DMEM medium (Sigma-Aldrich, St. Louis, MO, USA) and supplemented with 10% FBS, 1% sodium pyruvate, 1% non-essential amino acids (NEAA), 20 ng/mL human epithelia growth factor (hEGF), 10 μg/mL insulin, and 0.5 μg/mL hydrocortisone without antibiotics. All cell lines were maintained in a humidified atmosphere, with 5% CO2 at 37 °C.
Using the standard MTT-dye reduction assay described by Mosmann, the anti-proliferative activity was tested. The method is based on the metabolism of the tetrazolium salt MTT to insoluble formazan. The formazan absorption was registered using a microplate reader at λ = 540 nm. The measured absorption is an indicator of cell viability and metabolic activity. Anti-proliferative activities were expressed as IC50 values (concentrations required for 50% inhibition of cell growth), calculated using non-linear regression analysis (GraphPad Software, San Diego, CA, USA).

BALB 3T3 cells = experiment: in vitro 3T3 NRU test, phototoxicity; type: cell-based, mouse; settings: for IC50: Mus musculus, light or radiation study; for PIF (photo-irritancy factor): PIF = CC50/PC50, <2 not phototoxic
Experimental: Compounds 2–5 were studied for cytotoxicity/phototoxicity by an in vitro 3T3 NRU-test. The cell line BALB 3T3, clone A31 (mouse embryo fibroblasts), was incubated with the test compounds at a concentration from 15 to 4000 µg/mL for 24 h at 37 °C, 5% CO2, and 95% humidity. The cytotoxicity and phototoxicity were expressed in percentages relative to the negative control determined. […] Based on the dose–response curves, the CC50/PC50 values (50% cytotoxic/phototoxic concentration) were calculated by nonlinear regression analysis (Table 1). The CC50 values can be used to calculate the PIF (photo-irritancy factor) for each test compound according to the following formula: PIF = CC50/PC50.
BALB/3T3 cells were cultured in 75 cm^2 tissue culture flasks in DMEM, 10% FBS, 2 mM glutamine, and antibiotics (penicillin 100 U/mL and streptomycin-100 µg/mL) at 37 °C, 5% CO2, and 90% relative humidity. Cytotoxicity/phototoxicity was assessed by a validated BALB/3T3 clone A31 neutral red uptake assay (3T3 NRU test). Briefly, cells were plated in a 96-well microtiter plate at a density of 1 × 10^4 cells/100 µL/well and incubated for 24 h. A wide concentration range was applied for the test compounds. For the phototoxicity tests, 96-well plates were irradiated with a dose of 2.4 J/cm^2, and the cells were incubated for an additional 24 h. After treatment with neutral red medium, washing, and treatment with the ethanol/acetic acid solution, the absorption was measured on a TECAN microplate reader (TECAN, Grödig, Austria) at a wavelength of 540 nm. The light source which we used was a light-emitting diode (LED) matrix—an artificial solar light simulator Helios-iO, model LE-9ND55-H—5500K (SERIC Ltd., Tokyo, Japan).
Cytotoxicity/phototoxicity were expressed as CC50/PC50 values (concentrations required for 50% cytotoxicity/phototoxicity), calculated using non-linear regression analysis (GraphPad Software GraphPad Prism 9.5.1, San Diego, CA, USA). The CC50 values were used to calculate the PIF (photo-irritancy factor) for each test substance, according to the following formula:
PIF = Cytotoxicity (CC50)/Phototoxicity (PC50)

[1] = Homo sapiens, MCF7, MTT, read-out: IC50 MCF-7 (converted)
[2] = Homo sapiens, MCF7, MTT, read-out: IC50 of Mean ± SD, Anti-Proliferative Activity MCF-7
[3] = MTT, read-out: IC50 MCF-7 (converted)
[4] = BALB 3T3, irradiated 2.4 J/cm^2 (PC50), read-out: IC50 of Mean ± SD, Phototoxicity
[5] = BALB 3T3, irradiated, value in brackets, read-out: IC50, Phototoxicity (converted)

Compound	cell cycle arrest phase, MDA-MB-231 (MDA-MB-231)	change of %G1 vs control, MDA-MB-231 (MDA-MB-231)	change of %G2 vs control, MDA-MB-231 (MDA-MB-231)	change of %S vs control, MDA-MB-231 (MDA-MB-231)	%G1, MDA-MB-231 (MDA-MB-231)	%G2, MDA-MB-231 (MDA-MB-231)	%S, MDA-MB-231 (MDA-MB-231)	IC50 (MCF-7; [1])	IC50 (MCF-7; [2])	SI (selective index) MCF-7 (MCF-7)	IC50 (MCF-7; [3])	IC50 (BALB 3T3 cells; [4])	IC50 (BALB 3T3 cells; [5])	PIF (photo-irritancy factor) (BALB 3T3 cells)
CCOC(=O)Cc1nc(N)c2c(C)c(C(=O)OCC)sc2n1 [Compound 2, Ethyl 4-Amino-2-(2-Ethoxy-2-Oxoethyl)-5-Methylthieno[2,3-d]Pyrimidine-6-Carboxylate]	cell cycle arrest in the G2 stage	−17.63%	+53.65%	+15%	34.1%	6.73%	53.6%	300 µM	83.1 ± 7.3 µg/mL	6.1	260 µM	1080 ± 117 µg/mL	3300 µM	–
CCOC(=O)c1sc2nc(CC)nc(N)c2c1C [Compound 4, Ethyl 4-Amino-2-Ethyl-5-Methylthieno[2,3-d]Pyrimidine-6-Carboxylate]	cell cycle arrest in the G2 stage	−29.46%	+44.9%	+14.4%	29.2%	6.35%	53.3%	100 µM	28.9 ± 2.1 µg/mL	12.7	110 µM	2110 ± 122 µg/mL	8000 µM	1.2
CCOC(=O)c1sc2nc(C)nc(N)c2c1C [Compound 5, Ethyl 4-Amino-2,5-Dimethyl-Thieno[2,3-d]Pyrimidine-6-Carboxylate]	cell cycle arrest in the G2 stage	−20%	+45.9%	+15.45%	33.1%	6.439%	53.8%	100 µM	35.5 ± 1.5 µg/mL	17.4	140 µM	2350 ± 114 µg/mL	9400 µM	1.2

Reference: publication PMC10489817, “2-Alkyl-Substituted-4-Amino-Thieno[2,3-d]Pyrimidines: Anti-Proliferative Properties to In Vitro Breast Cancer Models” (Molecules, 2023)
